# How the values were obtained:
# [1] = target: T1, human serum albumin (HSA) (Homo sapiens, UniProt P02768); test: Spectral fluorescent titration of the dyes with HSA in PBS; type: binding; conditions: for nSc, stoichiometric coefficient (Scatchard): HSA (nSc = 1 taken for HSA); for KeffBH, effective complexation constant (Benesi–Hildebrand): fluorescent titration; for αb, proportion of bound dye: cbiomol = 5 × 10^−5 mol L^−1; for Fmax/F0, fluorescence growth at 100% binding: from the Benesi–Hildebrand dependence; for K2Sc, complexation constant (Scatchard): nSc = 1; for φfl^b, fluorescence quantum yield of the dye in the presence of biopolymer: cHSA~5 × 10^−5 mol L^−1; for LOD: detection of HSA; for LOQ: quantification of HSA
# T1 construct: purchased Sigma-Aldrich
# T1 sequence (P02768 25-609): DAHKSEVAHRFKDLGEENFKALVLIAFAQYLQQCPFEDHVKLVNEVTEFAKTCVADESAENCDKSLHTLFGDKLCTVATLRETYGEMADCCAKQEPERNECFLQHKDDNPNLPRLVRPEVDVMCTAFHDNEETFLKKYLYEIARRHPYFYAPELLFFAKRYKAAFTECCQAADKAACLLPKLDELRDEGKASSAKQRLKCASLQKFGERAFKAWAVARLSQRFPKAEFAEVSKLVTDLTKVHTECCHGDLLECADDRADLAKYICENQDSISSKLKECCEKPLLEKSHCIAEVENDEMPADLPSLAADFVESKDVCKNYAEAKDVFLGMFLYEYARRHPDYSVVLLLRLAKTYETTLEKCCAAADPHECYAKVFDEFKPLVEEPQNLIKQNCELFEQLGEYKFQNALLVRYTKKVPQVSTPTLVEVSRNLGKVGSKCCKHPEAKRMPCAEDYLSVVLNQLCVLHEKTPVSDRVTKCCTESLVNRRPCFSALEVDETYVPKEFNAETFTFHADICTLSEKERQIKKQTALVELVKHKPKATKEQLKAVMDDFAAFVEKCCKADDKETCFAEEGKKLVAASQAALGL
# Source text: (§1) Complexation of MCD 1–4 with DNA (double-stranded and single-stranded) and with human serum albumin (HSA) was studied by spectral fluorescent methods in a wide range of biopolymer concentrations (cdsDNA = 0–1.5 × 10^−4 mol L^−1; cssDNA = 0–1.4 × 10^−4 mol L^−1; cHSA = 0–1.4 × 10^−4 mol L^−1 in PBS buffer). The absorption, fluorescence, and fluorescence excitation spectra of MCD 1 and 3 in the presence of dsDNA are shown in Figure 3 and Figure 4, respectively.
# (§2) The complication of chemical equilibrium, and the variety of interactions between MCD and biopolymer (dye aggregation/deaggregation, the possibility of forming complexes of several types with DNA/HSA) makes it problematic to determine the exact values of the complexation constants of the dyes with DNA. The values of the effective equilibrium constants of the complexation reaction of MCD with biopolymers (Keff, L mol^−1, see Table 7) were estimated from spectral fluorescent data. In this case, we had to assume a simple equilibrium MCD (monomer, free) ⇄ MCD (monomer, bound). For these purposes, we used the Benesi–Hildebrand [59], Hill, and Scatchard formalisms (See Supplementary Materials, Equations (S9)–(S13)). For dsDNA, fitting according to the modified Scatchard equation was carried out assuming one dye molecule per one DNA turn (K1Sc at nSc = const = 10 b.p.), as well as varying both the constant (K2Sc) and the stoichiometric coefficient (nSc). In the case of ssDNA, nSc is given per one base; for HSA, nSc = 1.
# Distilled water, 0.01 M aqueous phosphate buffer saline solution (PBS; pH 7.4, containing 0.137 M NaCl and 0.0027 M KCl), ethanol, benzyl alcohol, isopentyl alcohol, acetonitrile, DMSO, 1,4-dioxane, chloroform, DMSO, acetone, methyl ethyl ketone, ethyl acetate (all analytical grade). Commercial chick erythrocyte DNA (Reanal, Budapest, Hungary) and human serum albumin (HSA, Sigma-Aldrich, St. Louis, MO, USA) were used.
# (§3) Absorption spectra were recorded on an SF-2000 spectrophotometer (Experimental-Construction Company “Spectrum”, St. Petersburg, Russia); fluorescence and fluorescence excitation spectra were recorded on a Fluorat-02-Panorama spectrofluorimeter (Group of Companies “Lumex”, St. Petersburg, Russia). The fluorescence and fluorescence excitation spectra were corrected for the spectral characteristics of the instrument (excitation channel signal) and sample transmission. Changes in the intrinsic fluorescence of HSA upon binding of MCD (in the presence of the dyes) were recorded in the synchronous fluorescence scanning (SFS) mode. In SFS mode, when registering spectra, a fixed difference Δλ= λfl − λex is maintained for the channels of excitation and registration. Synchronous scanning spectra were obtained at Δλ = 15 nm (fluorescence of tyrosine residues in the HSA molecule) and Δλ = 60 nm (fluorescence of tryptophan). The spectra were measured in 1 cm quartz semi-micro cells (Bio-Rad, Hercules, CA, USA).
# The equilibrium constants of MCD complexation with biomolecules (Ka, L mol^−1) were obtained from fluorescence spectra using the Benesi–Hildebrand [59], Hill, and Scatchard equations [61] (see Supplementary Materials, Equations (S9)–(S13)). Limits of detection (LOD) and quantification (LOQ) of biomolecules were determined from concentration plots of MCD fluorescence intensities (see Supplementary Materials, Equations (S14) and (S15)). […]
# 1. Spectral‐Fluorescent Titration
# In experiments on spectral‐fluorescence titration, MCD 1–4 were dosed from their concentrated st ock solutions in EtOH. Microvolumes (~0.5–5 μL) were dosed into the measuring cell (dilution 1:500 – 1:1000). […]
# Measurements of the intrinsic fluorescence of HSA in the presence of MCD were carried out at a constant concentration of HSA (cHSA ~ 2.0 × 10–5 mol L–1) by titration with increasing concentrations of dyes. After stirring, the absorption and fluorescence spectra of the dyes were recorded several times. […]
# [2] = test system: ssDNA; test: Spectral fluorescent titration of the dyes with ssDNA in PBS; type: binding, chick; conditions: for φfl^b, fluorescence quantum yield of the dye in the presence of biopolymer: cssDNA~5 × 10^−5 mol L^−1; for decrease of the observed extinction coefficients: cssDNA~8 × 10^−5 mol L^−1; for LOD: detection of ssDNA; for LOQ: quantification of ssDNA; for K1Sc, complexation constant (Scatchard) / nHill, Hill coefficient / KeffHill, effective complexation constant (Hill) / KeffBH, effective complexation constant (Benesi–Hildebrand) / αb, proportion of bound dye / K2Sc, complexation constant (Scatchard) / Fmax/F0, fluorescence growth at 100% binding / nSc, stoichiometric coefficient (Scatchard): ssDNA; for KeffHill, effective complexation constant (Hill) / KeffBH, effective complexation constant (Benesi–Hildebrand): PBS buffer; for KeffBH, effective complexation constant (Benesi–Hildebrand): fluorescent titration; for αb, proportion of bound dye: cbiomol = 5 × 10^−5 mol L^−1; for K2Sc, complexation constant (Scatchard): constant and nSc both varied; for Fmax/F0, fluorescence growth at 100% binding: from the Benesi–Hildebrand dependence; for nSc, stoichiometric coefficient (Scatchard): per one base
# Source text: as §1, §2
# Single-stranded form of DNA (single-stranded DNA; ssDNA) was obtained according to the method described in [74]. The concentrations of DNA and the dyes were controlled spectrophotometrically. Molar extinction coefficient of dsDNA (ε, L⋅mol^−1⋅cm^−1) was taken to be 13,200 L mol^−1 cm^−1 (per base pair); for ssDNA, ε = 9045 L mol^−1 cm^−1 (per one base) was used. For MCD 1 and 2 in an aqueous buffer solution, we used extinction coefficients ε = 40,000 and 68,000 L mol^−1 cm^−1, respectively, which were taken from. For MCD 3 and 4, the molar extinction coefficients in ethanol solution were 69,200 and 49,000 L mol^−1 cm^−1 (taken from). […] Spectral fluorescent characteristics of MCD in complexes with biomacromolecules were studied by titration of dye solutions (see Supplementary Materials). The thermal dissociation (“melting”) of dsDNA in the presence of MCD was studied spectrophotometrically (λabs = 260 nm), the sample was heated (t° = 30–95 °C) using Peltier cells, and the temperature was controlled using a thermocouple. Melting points tm, corresponding to 50% hyperchromia of DNA samples were obtained.
# as §3
# The equilibrium constants of MCD complexation with biomolecules (Ka, L mol^−1) were obtained from fluorescence spectra using the Benesi–Hildebrand [59], Hill, and Scatchard equations [61] (see Supplementary Materials, Equations (S9)–(S13)). […]
smiles,measurement,setting,value
CC[N+](CC)(CC)CCC[n+]1ccc(/C=C2\Sc3ccccc3N2C)c2ccc(O)cc21 [MCD 1],"LR, linear portion of fluorescence intensity vs. concentration plot",[1]; HSA,0–0.6 ^3 µmol L^−1
same,"nHill, Hill coefficient",[1]; HSA,0.89
same,"nSc, stoichiometric coefficient (Scatchard)",[1],1
same,lower sensitivity to HSA than to dsDNA,[1]; HSA versus dsDNA,about 37 times
same,"KeffHill, effective complexation constant (Hill)","[1]; HSA, PBS buffer",3350 L/mol
same,"εf/εb, relative change in molar extinction coefficient on complexation","[1]; HSA, PBS buffer",1.59
same,"KeffBH, effective complexation constant (Benesi–Hildebrand)","[1]; HSA, PBS buffer",8000 L/mol
same,"αb, proportion of bound dye",[1]; HSA,27%
same,"Fmax/F0, fluorescence growth at 100% binding",[1]; HSA,65
same,"K2Sc, complexation constant (Scatchard)",[1]; HSA,7300 L/mol
same,hypochromia of the absorption band,[1]; cHSA = 2.5 × 10^−7 mol L^−1,~ 25%
same,"φfl^b, fluorescence quantum yield of the dye in the presence of biopolymer",[1],~1 ± 0.1%
same,hypochromia of the absorption band,"[1]; cHSA~9 × 10^−6 mol L^−1, crel(HSA) = 3",~ 36%
same,LOD,[1],270 nM
same,LOQ,[1],890 nM
same,"Ifl/Ifl0, relative increase in the fluorescence intensity",[2]; cssDNA = 5 × 10^−5 mol L^−1,~ 40
same,"φfl^b, fluorescence quantum yield of the dye in the presence of biopolymer",[2],12 ± 1.5%
same,decrease of the observed extinction coefficients,[2],40%
same,LOD,[2],40 nM
same,LOQ,[2],120 nM
same,"K1Sc, complexation constant (Scatchard)",[2],228000 L/mol
same,"nHill, Hill coefficient",[2],0.7
same,"KeffHill, effective complexation constant (Hill)",[2],2830 L/mol
same,"KeffBH, effective complexation constant (Benesi–Hildebrand)",[2],24200 L/mol
same,"αb, proportion of bound dye",[2],60%
same,"K2Sc, complexation constant (Scatchard)",[2],159000 L/mol
same,"Fmax/F0, fluorescence growth at 100% binding",[2],60.9
same,"nSc, stoichiometric coefficient (Scatchard)",[2],2
CCN1/C(=C/c2ccc3ccccc3[n+]2CC)C=Cc2ccccc21 [MCD 4],"LR, linear portion of fluorescence intensity vs. concentration plot",[1]; HSA,0.7–7.5 ^2 µmol L^−1
same,"nHill, Hill coefficient",[1]; HSA,0.61
same,"nSc, stoichiometric coefficient (Scatchard)",[1],1
same,"KeffHill, effective complexation constant (Hill)","[1]; HSA, PBS buffer",1830 L/mol
same,"KeffBH, effective complexation constant (Benesi–Hildebrand)","[1]; HSA, PBS buffer",4820 L/mol
same,"αb, proportion of bound dye",[1]; HSA,20%
same,"Fmax/F0, fluorescence growth at 100% binding",[1]; HSA,109
same,"K2Sc, complexation constant (Scatchard)",[1]; HSA,17000 L/mol
same,"φfl^b, fluorescence quantum yield of the dye in the presence of biopolymer",[1],~0.5 ± 0.1%
same,LOD,[1],730 nM
same,drop in the apparent extinction coefficients,[1]; interaction with HSA,1.5–2 fold
same,LOQ,[1],2200 nM
same,"φfl^b, fluorescence quantum yield of the dye in the presence of biopolymer",[2],~1.4 ± 0.2%
same,decrease of the observed extinction coefficients,[2],54%
same,LOD,[2],760 nM
same,LOQ,[2],2300 nM
same,"K1Sc, complexation constant (Scatchard)",[2],65000 L/mol
same,"nHill, Hill coefficient",[2],0.57
same,"KeffHill, effective complexation constant (Hill)",[2],350 L/mol
same,"KeffBH, effective complexation constant (Benesi–Hildebrand)",[2],6800 L/mol
same,"αb, proportion of bound dye",[2],25%
same,"K2Sc, complexation constant (Scatchard)",[2],19500 L/mol
same,"Fmax/F0, fluorescence growth at 100% binding",[2],61
same,"nSc, stoichiometric coefficient (Scatchard)",[2],3
CCN1/C(=C/c2sc3ccccc3[n+]2CC)Sc2ccccc21 [MCD 3],"LR, linear portion of fluorescence intensity vs. concentration plot",[1]; HSA,0 to 1 µmol/L
same,"nHill, Hill coefficient",[1]; HSA,0.59
same,"nSc, stoichiometric coefficient (Scatchard)",[1],1
same,"KeffHill, effective complexation constant (Hill)","[1]; HSA, PBS buffer",27800 L/mol
same,"KeffBH, effective complexation constant (Benesi–Hildebrand)","[1]; HSA, PBS buffer",17600 L/mol
same,"αb, proportion of bound dye",[1]; HSA,50%
same,"Fmax/F0, fluorescence growth at 100% binding",[1]; HSA,26
same,"K2Sc, complexation constant (Scatchard)",[1]; HSA,34000 L/mol
same,"φfl^b, fluorescence quantum yield of the dye in the presence of biopolymer",[1],50%
same,"φfl^b, fluorescence quantum yield of the dye in the presence of biopolymer",[1]; listed as 3,~50 ± 6%
same,LOD,[1],77 nM
same,LOQ,[1],230 nM
same,"φfl^b, fluorescence quantum yield of the dye in the presence of biopolymer",[2],4.7 ± 0.5%
same,LOD,[2],87 nM
same,LOQ,[2],260 nM
same,"K1Sc, complexation constant (Scatchard)",[2],112000 L/mol
same,"nHill, Hill coefficient",[2],0.76
same,"KeffHill, effective complexation constant (Hill)",[2],2940 L/mol
same,"KeffBH, effective complexation constant (Benesi–Hildebrand)",[2],11600 L/mol
same,"αb, proportion of bound dye",[2],37%
same,"K2Sc, complexation constant (Scatchard)",[2],430000 L/mol
same,"Fmax/F0, fluorescence growth at 100% binding",[2],71
same,"nSc, stoichiometric coefficient (Scatchard)",[2],37

# From publication PMC10531095, “Photonics of Some Monomethine Cyanine Dyes in Solutions and in Complexes with Biomolecules” (International Journal of Molecular Sciences, 2023)
